This note sets out measurements from ChEMBL document CHEMBL3272205, “Pyrazolodiazepines. 2. 4-Aryl-1,3-dialkyl-6,8-dihydropyrazolo[3,4-e] [1,4]diazepin-7(1H)-ones as antianxiety and anticonvulsant agents” (1977).

SMILES strings stand for the structures. Bounds are passed on as bounds.

What all share (format): functional
The species named for assay [1] is Rattus norvegicus. As to the kind of experiment: Anticonvulsant activity in rat assessed as protection against pentylenetetrazole-induced clonic seizures. The settings on record: read-out: MED.
The species named for assay [2] is Rattus norvegicus. As to the kind of experiment: Antianxiety activity in Holtzman rat assessed as dose required to elicit increase in milk consumption. The note with it: read-out: MED.
The species entered for assay [3] is Rattus norvegicus. As to the kind of experiment: Ratio of diazepam MED to compound MED for antianxiety activity in Holtzman rat.

For the compound `CCCCn1nc(C)c2c1NC(=O)CN=C2c1ccccc1Cl`, the minimal effective dose in the assay listed under Rattus norvegicus [1] stood at 32 mg/kg; in the assay filed under Rattus norvegicus [2], 40 mg/kg.

Turning to `CCCc1nn(C)c2c1C(c1ccccc1Cl)=NCC(=O)N2`, the values for the minimal effective dose in the assay listed under Rattus norvegicus [1] and in the assay listed under Rattus norvegicus [2] were 250 mg/kg and above 40 mg/kg, respectively. Regarding `CCc1nn(C)c2c1C(c1ccccc1F)=NCC(=O)N2`, the minimal effective dose came out at 2 mg/kg in the assay filed under Rattus norvegicus [1] and 1.25 mg/kg in the assay listed under Rattus norvegicus [2]. On to `Cc1nn(C)c2c1C(c1ccccc1F)NCC(=O)N2C.Cl` (stereo not given), for which the values for the minimal effective dose in the assay filed under Rattus norvegicus [1] and in the assay listed under Rattus norvegicus [2] were 4 mg/kg and 1.2 mg/kg, respectively. As for `Cc1nn(C)c2c1C(c1ccccc1F)=NCC(=O)N2C` [ZOLAZEPAM], the minimal effective dose in the assay listed under Rattus norvegicus [1] amounted to 2 mg/kg; in the assay listed under Rattus norvegicus [2], 0.32 mg/kg. For the same compound, in the assay filed under Rattus norvegicus [3], the Ratio came to 5.

Take `Cc1nn(C2CCCCC2)c2c1C(c1ccccc1Cl)=NCC(=O)N2C`: the minimal effective dose in the assay filed under Rattus norvegicus [1] is 63 mg/kg; in the assay listed under Rattus norvegicus [2] it was above 40 mg/kg.

With `CC(C)c1nn(C)c2c1C(c1ccccc1Cl)=NCC(=O)N2`, the minimal effective dose in the assay filed under Rattus norvegicus [1] is 125 mg/kg; in the assay filed under Rattus norvegicus [2], above 40 mg/kg.

As for `Cc1nn(C)c2c1C(c1cccs1)=NCC(=O)N2`, the minimal effective dose in the assay filed under Rattus norvegicus [2] was determined as 40 mg/kg. Turning to `Cc1nn(C2CCCCC2)c2c1C(c1ccccc1Cl)=NCC(=O)N2`, the minimal effective dose is above 500 mg/kg in the assay filed under Rattus norvegicus [1] and above 40 mg/kg in the assay listed under Rattus norvegicus [2]. Regarding `CCn1nc(C)c2c1NC(=O)CN=C2c1ccccc1F`, the minimal effective dose was 8 mg/kg in the assay filed under Rattus norvegicus [1] and 2.5 mg/kg in the assay listed under Rattus norvegicus [2]. In the same order, the values of `CCCn1nc(C)c2c1N(C)C(=O)CN=C2c1ccccc1Cl` are 16 mg/kg and 2.5 mg/kg. The like results for `Cn1nc(Cl)c2c1NC(=O)CN=C2c1ccccc1` were, in that order, 63 mg/kg and 40 mg/kg. Turning to `Cc1nn(C)c2c1C(c1ccccc1F)=NCC(=O)N2`, the results for the minimal effective dose in the assay listed under Rattus norvegicus [1] and in the assay listed under Rattus norvegicus [2] were 8 mg/kg and 2.5 mg/kg, respectively. Consider `Cc1nn(C)c2c1C(c1ccccc1)=NC(O)C(=O)N2C` (stereo not given), for which the minimal effective dose in the assay listed under Rattus norvegicus [1] is 16 mg/kg; in the assay listed under Rattus norvegicus [2] it was 5 mg/kg. The like results for `Cc1nn(C)c2c1C(c1ccccc1F)=NCC(=O)N2C.Cl` [ZOLAZEPAM HYDROCHLORIDE] were, in that order, 2 mg/kg and 0.32 mg/kg.

For the compound `CCn1nc(C)c2c1N(C)C(=O)CN=C2c1ccccc1F`, the minimal effective dose in the assay listed under Rattus norvegicus [1] was 4 mg/kg; in the assay listed under Rattus norvegicus [2], 1.25 mg/kg.

Take `CCCCn1nc(C)c2c1NC(=O)CN=C2c1cccc(Cl)c1`: the results for the minimal effective dose in the assay listed under Rattus norvegicus [1] and in the assay listed under Rattus norvegicus [2] were above 500 mg/kg and above 40 mg/kg, respectively. Regarding `Cc1nn(C)c2c1C(c1c(F)cccc1F)=NCC(=O)N2C`, the minimal effective dose in the assay listed under Rattus norvegicus [1] came to 2 mg/kg; in the assay filed under Rattus norvegicus [2], 20 mg/kg.

Consider `CCc1nn(C)c2c1C(c1ccc(F)cc1)=NCC(=O)N2C`, for which the minimal effective dose in the assay filed under Rattus norvegicus [1] was above 500 mg/kg; in the assay listed under Rattus norvegicus [2] it was above 40 mg/kg. Consider `CCCCc1nn(C)c2c1C(c1ccccc1Cl)=NCC(=O)N2C`, for which the values for the minimal effective dose in the assay filed under Rattus norvegicus [1] and in the assay listed under Rattus norvegicus [2] were 125 mg/kg and above 40 mg/kg, respectively. In the case of `CN1C(=O)CN=C(c2ccccc2)c2cc(Cl)ccc21` [DIAZEPAM], the minimal effective dose in the assay listed under Rattus norvegicus [1] is 4 mg/kg; in the assay listed under Rattus norvegicus [2], 1.25 mg/kg. `Cc1nn(C)c2c1C(c1ccccc1)=NCC(=O)N2C.Cl`: the minimal effective dose stood at 4 mg/kg in the assay filed under Rattus norvegicus [1] and 2.5 mg/kg in the assay listed under Rattus norvegicus [2]. In the case of `CCc1nn(C)c2c1C(c1ccccc1Cl)=NCC(=O)N2`, the minimal effective dose in the assay listed under Rattus norvegicus [1] turned out to be 32 mg/kg; in the assay filed under Rattus norvegicus [2], 2.5 mg/kg. `Cc1nn(-c2ccccc2)c2c1C(c1ccccc1)=NCC(=O)N2`: the minimal effective dose in the assay listed under Rattus norvegicus [1] is above 500 mg/kg; in the assay filed under Rattus norvegicus [2], above 40 mg/kg. `CCCn1nc(C)c2c1NC(=O)CN=C2c1ccccc1Cl`: the values for the minimal effective dose in the assay filed under Rattus norvegicus [1] and in the assay filed under Rattus norvegicus [2] were 63 mg/kg and 40 mg/kg, respectively.

Take `Cc1nn(C)c2c1C(c1ccccc1)=NCC(=O)N2C`: the minimal effective dose came to 4 mg/kg in the assay filed under Rattus norvegicus [1] and 2.5 mg/kg in the assay listed under Rattus norvegicus [2].

Turning to `CC(=O)OC1N=C(c2ccccc2F)c2c(C)nn(C)c2N(C)C1=O` (stereo not given), the minimal effective dose in the assay listed under Rattus norvegicus [1] was 8 mg/kg; in the assay filed under Rattus norvegicus [2], 20 mg/kg. In the case of `Cc1nn(C)c2c1C(c1ccccc1F)=[N+]([O-])CC(=O)N2C`, the minimal effective dose in the assay listed under Rattus norvegicus [1] was 8 mg/kg; in the assay filed under Rattus norvegicus [2], 10 mg/kg. Regarding `CCn1nc(C)c2c1NC(=O)CN=C2c1ccccc1Cl`, the minimal effective dose in the assay filed under Rattus norvegicus [1] is 8 mg/kg; in the assay listed under Rattus norvegicus [2], 5 mg/kg. As for `CCc1nn(C)c2c1C(c1ccccc1)=NCC(=O)N2`, the results for the minimal effective dose in the assay listed under Rattus norvegicus [1] and in the assay listed under Rattus norvegicus [2] were 8 mg/kg and 2.5 mg/kg, respectively. Take `Cc1nn(C)c2c1C(c1cccc(Cl)c1)=NCC(=O)N2`: the minimal effective dose in the assay filed under Rattus norvegicus [1] was above 500 mg/kg; in the assay listed under Rattus norvegicus [2], above 40 mg/kg.

As to `CCc1nn(C)c2c1C(c1ccccc1)=NCC(=O)N2C`, the minimal effective dose in the assay listed under Rattus norvegicus [1] is 4 mg/kg; in the assay listed under Rattus norvegicus [2], 1.25 mg/kg. In the case of `CCc1nn(C)c2c1C(c1ccccc1F)=NCC(=O)N2.Cl`, the values for the minimal effective dose in the assay filed under Rattus norvegicus [1] and in the assay filed under Rattus norvegicus [2] were 2 mg/kg and 1.25 mg/kg, respectively. As for `Cc1nn(C)c2c1C(c1ccccc1)=[N+]([O-])CC(=O)N2C`, the results for the minimal effective dose in the assay listed under Rattus norvegicus [1] and in the assay listed under Rattus norvegicus [2] were 63 mg/kg and above 40 mg/kg, respectively. With `CC(C)c1nn(C)c2c1C(c1ccccc1Cl)=NCC(=O)N2C`, the minimal effective dose in the assay filed under Rattus norvegicus [1] is 63 mg/kg; in the assay filed under Rattus norvegicus [2], above 40 mg/kg.

As to `Cc1nn(C)c2c1C(c1ccccc1Cl)=NCC(=O)N2C.Cl`, the minimal effective dose in the assay listed under Rattus norvegicus [1] is 4 mg/kg; in the assay listed under Rattus norvegicus [2] it was 2.5 mg/kg.

Turning to `CCc1nn(C)c2c1C(c1ccccc1F)=NCC(=O)N2C`, the minimal effective dose in the assay filed under Rattus norvegicus [1] was 4 mg/kg; in the assay filed under Rattus norvegicus [2], 1.25 mg/kg. The like results for `CCc1nn(C)c2c1C(c1cccc(F)c1)=NCC(=O)N2C` were, in that order, 32 mg/kg and 10 mg/kg. Regarding `Cc1nn(C)c2c1C(c1ccccc1Cl)=NCC(=O)N2`, the minimal effective dose came out at 16 mg/kg in the assay listed under Rattus norvegicus [1] and 2.5 mg/kg in the assay listed under Rattus norvegicus [2]. For the compound `C=CCN1C(=O)CN=C(c2ccccc2Cl)c2c(C)nn(CC)c21`, the minimal effective dose was 63 mg/kg in the assay listed under Rattus norvegicus [1] and above 40 mg/kg in the assay filed under Rattus norvegicus [2]. Regarding `CCCc1nn(C)c2c1C(c1ccccc1Cl)=NCC(=O)N2C`, the minimal effective dose is 63 mg/kg in the assay filed under Rattus norvegicus [1] and above 40 mg/kg in the assay listed under Rattus norvegicus [2]. In the case of `Cl.Cn1ncc2c1NC(=O)CN=C2c1ccccc1`, the minimal effective dose is 250 mg/kg in the assay filed under Rattus norvegicus [1] and above 80 mg/kg in the assay listed under Rattus norvegicus [2]. Take `CCCCc1nn(C)c2c1C(c1ccccc1Cl)=NCC(=O)N2`: the minimal effective dose in the assay filed under Rattus norvegicus [1] is above 500 mg/kg; in the assay listed under Rattus norvegicus [2], above 40 mg/kg. Take `CCN1C(=O)CN=C(c2ccccc2F)c2c(C)nn(C)c21`: the minimal effective dose stood at 32 mg/kg in the assay filed under Rattus norvegicus [1] and 5 mg/kg in the assay listed under Rattus norvegicus [2].

`COc1nn(C)c2c1C(c1ccccc1F)=NCC(=O)N2C`: the results for the minimal effective dose in the assay listed under Rattus norvegicus [1] and in the assay filed under Rattus norvegicus [2] were 8 mg/kg and 10 mg/kg, respectively. In the same order, the values of `CCn1nc(C)c2c1N(C)C(=O)CN=C2c1ccccc1Cl` are 4 mg/kg and 0.63 mg/kg. Turning to `Cc1nn(C)c2c1C(c1ccccc1[N+](=O)[O-])=NCC(=O)N2C`, in the assay filed under Rattus norvegicus [1], the minimal effective dose came to 8 mg/kg. Consider `Cc1nn(C(C)C)c2c1C(c1ccccc1Cl)=NCC(=O)N2`, for which the minimal effective dose in the assay listed under Rattus norvegicus [1] is 16 mg/kg; in the assay listed under Rattus norvegicus [2] it was 20 mg/kg. With `Cc1nn(C)c2c1C(c1ccccc1F)=NC(O)C(=O)N2C` (stereo not given), the minimal effective dose in the assay listed under Rattus norvegicus [1] turned out to be 4 mg/kg; in the assay listed under Rattus norvegicus [2], 2.5 mg/kg.

`Cc1nn(C)c2c1C(c1ccccc1)=NCC(=O)N2`: the results for the minimal effective dose in the assay filed under Rattus norvegicus [1] and in the assay filed under Rattus norvegicus [2] were 16 mg/kg and 10 mg/kg, respectively. As to `CCc1nn(C)c2c1C(c1ccc(F)cc1)=NCC(=O)N2`, the minimal effective dose is above 500 mg/kg in the assay filed under Rattus norvegicus [1] and above 40 mg/kg in the assay filed under Rattus norvegicus [2]. In the same order, the values of `CCc1nn(C)c2c1C(c1ccccc1Cl)=NCC(=O)N2C` are 16 mg/kg and 0.63 mg/kg. Turning to `Cc1nn(C)c2c1C(c1ccccc1N=[N+]=[N-])=NCC(=O)N2C`, the results for the minimal effective dose in the assay filed under Rattus norvegicus [1] and in the assay filed under Rattus norvegicus [2] were 63 mg/kg and above 40 mg/kg, respectively. In the same order, the values of `CCc1nn(C)c2c1C(c1ccccc1)NCC(=O)N2C.Cl` (stereo not given) are 63 mg/kg and above 40 mg/kg. As for `CCc1nn(C)c2c1C(c1cccc(F)c1)=NCC(=O)N2`, the minimal effective dose worked out at 32 mg/kg in the assay listed under Rattus norvegicus [1] and 20 mg/kg in the assay filed under Rattus norvegicus [2]. In the same order, the values of `CCCCn1nc(C)c2c1N(C)C(=O)CN=C2c1ccccc1Cl` are 16 mg/kg and 40 mg/kg.

`Cc1nn(C)c2c1C(c1ccccc1Br)=NCC(=O)N2C`: the minimal effective dose in the assay listed under Rattus norvegicus [1] turned out to be 4 mg/kg; in the assay listed under Rattus norvegicus [2], 5 mg/kg. As to `Cc1nn(-c2ccccc2)c2c1C(c1ccccc1Cl)=NCC(=O)N2`, the minimal effective dose in the assay listed under Rattus norvegicus [1] was found to be 500 mg/kg; in the assay filed under Rattus norvegicus [2], 20 mg/kg.
